Data from patent publication US20210283261A1, “Compositions and Methods for Treating ALK-Mediated Cancer” (ICAHN SCHOOL OF MEDICINE AT MOUNT SINAI, priority 2017, published 2021).

What was measured:
ALK = assay: Characterization of ALK degraders in ALCL and NSCLC cells (summary); assay type: cell-based; details: summary statement
From the text: Specific exemplary ALK degraders/disruptors were characterized in various different anaplastic large cell lymphoma (ALCL) cells and non-small cell lung cancer (NSCLC) cells (Examples 4-19, FIGS. 1-18). […] This efficacy in suppressing ALK expression and ALK activity correlated with efficacy in inhibiting cancer cell proliferation.

NPM-ALK fusion protein = molecular target: T1, NPM-ALK fusion protein (Homo sapiens, UniProt Q9UM73); assay: Western blot of NPM-ALK fusion protein levels in SU-DHL-1 cells; assay type: cell-based; details: for effect on NPM-ALK fusion protein levels, time dependence: SU-DHL-1 cells, 0, 2, 4, 8, 16 and 24 h; for Dmax at 0.03 µM / reversibility of induced ALK fusion protein degradation after washout / rescue of induced NPM-ALK degradation by pomalidomide, MLN4924 and MG-132: SU-DHL-1 cells; for Dmax at 0.03 µM: 30 nM, Western blot, read-out: ALK fusion protein degradation, SU-DHL-1 (30 nM); for reversibility of induced ALK fusion protein degradation after washout: 100 nM for 2 h, PBS wash, fresh medium; for effect on NPM-ALK fusion protein levels, concentration dependence: SU-DHL-1 cells, 1, 3, 10, 30 or 100 nM, 16 h; for rescue of induced NPM-ALK degradation by pomalidomide, MLN4924 and MG-132: 2 h pre-treatment, then 100 nM compound for 6 h
T1 construct: endogenous in cells; host or cells: SU-DHL-1; the other entry of the earlier key: NPM1 (P06748, Nucleophosmin)
Outline: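 SU-DHL-1 cells treated with DMSO or compound serial dilutions for 16 h, or at 30 nM or 100 nM for varying times. NPM-ALK and phospho-ALK (Tyr1507) levels measured by Western blot and normalized to GAPDH.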

Phospho-ALK (Tyr1507) = molecular target: T2, Phospho-ALK (Tyr1507) (Homo sapiens, UniProt Q9UM73); assay: Western blot of ALK phosphorylation at Tyr1507 (ALK activity) in SU-DHL-1 cells; assay type: cell-based; details: 3 nM, 16 h
T2 construct: endogenous in cells; host or cells: SU-DHL-1; the other entry of the earlier key: NPM1 (P06748, Nucleophosmin)
Protocol: (§1) Cells were washed with cold PBS once and lysed in 1× Laemmli loading buffer directly. Lysates were heated at 99° C. for 5 mm, and resolved on 4-15% precast SDS-PAGE (BIO-RAD) and transferred onto PVDF membrane. Membrane was blocked in 5% milk in Tris-buffered saline and Tween 20 (TBST) for 1 h at room temperature, followed by incubation with a primary antibody overnight at 4° C., and a horseradish peroxidase (HRP)-conjugated secondary antibody for 1 h at room temperature. The membrane was imaged by a ChemiDoc MP imaging system (BIO-RAD). Antibodies against GAPDH (abeam), Phospho-ALK (Tyr1507), ALK (Cell Signaling Technology), Tubulin (Santa Cruz) were purchased commercially.
SU-DHL-1 cells were seeded in 12-well plates at a density of 4×10^5/mL and treated with DMSO or indicated serial dilutions of compounds for 16 h. The NPM-ALK fusion protein levels were determined by Western blot and normalized against GPADH (right panel).

SU-DHL-1 cells = assay: Cell viability assay in SU-DHL-1 cells; assay type: cell-based; details: CellTiter-Glo; for cell viability inhibition compared with negative controls: 3 days; for GI50: Homo sapiens, 60 h, 2.5 days, read-out: GI50 (drug concentration that results in 50% growth inhibition)
Protocol: (§2) SU-DHL-1 cells were seeded in 96-well plates at a density of 1×10^4 cells per well, in triplicate. Treated cells with DMSO or indicated serial dilutions of compounds for 2.5 days. Cell growth/survival was measured by using the CellTiter-Glo luminescent cell viability assay following the manufacturer's instructions (Promega) or CCK8 cell viability assay (Sigma). Data was analyzed by using the GraphPad Prism software, Error bars represent ±SD for triplicate experiments.
as §2, with “assay.” for “assay following the manufacturer's instructions (Promega) or CCK8 cell viability assay (Sigma).”, “experiments (left panel).” for “experiments.”
SU-DHL-1 cells were seeded in 96-well plates at a density of 5000 cells per well, in triplicate. The cells were treated with DMSO or indicated serial dilutions of compounds for 3 days. Cell growth was measured using the CellTiter-Glo luminescent cell viability assay. Data were analyzed using the GraphPad Prism.
SU-DHL-1 and NCI-3122 cells were treated with DMSO or indicated serial dilutions of compounds for 3 days. Data were analyzed using the GraphPad Prism.

[1] = molecular target: T3, EML4-ALK v3 fusion protein (Homo sapiens, UniProt Q9UM73); assay: Western blot of EML4-ALK v3 fusion protein levels in NCI-H2228 cells; assay type: cell-based; details: for effect on EML4-ALK fusion protein levels, time dependence: NCI-H2228 cells, 0, 2, 4, 8, 16 and 24 h; for effect on EML4-ALK fusion protein levels, concentration dependence: NCI-H2228 cells, 1, 3, 10, 30 or 100 nM, 16 h
T3 construct: endogenous in cells; host or cells: NCI-H2228
Protocol: Cells were cultured in a 37° C. incubator with 5% CO2.
as §1, with “Lysates were heated at 99° C. for 5 mm, and resolved on 4-15% precast SDS-PAGE (BIO-RAD) and transferred onto PVDF membrane.” left out
Cells were 70% confluent and treated with DMSO or indicated serial dilutions of compounds for 16 h. The EML4-ALK fusion protein levels were determined by Western blot and normalized against GPADH (right panel).

[2] = Standard PK study in mice, plasma concentrations; assay type: in vivo, male Swiss Albino mice; details: single 50 mg/kg intraperitoneal (IP) injection, 30 min to 12 h
Protocol: Standard PK studies were conducted using male Swiss Albino mice. […] Error bars represent ±SD for triplicate samples.

T1 sequence (Q9UM73 with tags, fused parts or gaps): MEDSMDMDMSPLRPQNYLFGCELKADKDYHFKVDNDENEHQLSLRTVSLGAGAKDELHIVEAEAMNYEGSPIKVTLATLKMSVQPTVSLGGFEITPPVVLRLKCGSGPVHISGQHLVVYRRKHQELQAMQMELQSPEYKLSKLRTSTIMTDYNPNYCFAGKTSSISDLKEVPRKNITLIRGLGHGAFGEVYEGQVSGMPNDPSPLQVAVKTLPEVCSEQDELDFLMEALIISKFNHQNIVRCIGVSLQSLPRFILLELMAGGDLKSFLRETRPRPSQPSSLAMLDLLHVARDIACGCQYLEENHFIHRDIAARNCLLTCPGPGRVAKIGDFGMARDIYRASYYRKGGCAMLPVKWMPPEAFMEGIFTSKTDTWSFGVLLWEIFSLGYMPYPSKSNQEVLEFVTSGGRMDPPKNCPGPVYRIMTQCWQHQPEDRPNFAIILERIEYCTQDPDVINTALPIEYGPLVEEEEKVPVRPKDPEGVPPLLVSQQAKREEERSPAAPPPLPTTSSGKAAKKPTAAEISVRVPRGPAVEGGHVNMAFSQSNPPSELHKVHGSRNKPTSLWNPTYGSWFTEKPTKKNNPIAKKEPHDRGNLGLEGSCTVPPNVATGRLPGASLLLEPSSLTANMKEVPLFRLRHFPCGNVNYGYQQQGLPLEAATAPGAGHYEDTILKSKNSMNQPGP
T3 sequence (Q9UM73 1058-1620 limits assumed): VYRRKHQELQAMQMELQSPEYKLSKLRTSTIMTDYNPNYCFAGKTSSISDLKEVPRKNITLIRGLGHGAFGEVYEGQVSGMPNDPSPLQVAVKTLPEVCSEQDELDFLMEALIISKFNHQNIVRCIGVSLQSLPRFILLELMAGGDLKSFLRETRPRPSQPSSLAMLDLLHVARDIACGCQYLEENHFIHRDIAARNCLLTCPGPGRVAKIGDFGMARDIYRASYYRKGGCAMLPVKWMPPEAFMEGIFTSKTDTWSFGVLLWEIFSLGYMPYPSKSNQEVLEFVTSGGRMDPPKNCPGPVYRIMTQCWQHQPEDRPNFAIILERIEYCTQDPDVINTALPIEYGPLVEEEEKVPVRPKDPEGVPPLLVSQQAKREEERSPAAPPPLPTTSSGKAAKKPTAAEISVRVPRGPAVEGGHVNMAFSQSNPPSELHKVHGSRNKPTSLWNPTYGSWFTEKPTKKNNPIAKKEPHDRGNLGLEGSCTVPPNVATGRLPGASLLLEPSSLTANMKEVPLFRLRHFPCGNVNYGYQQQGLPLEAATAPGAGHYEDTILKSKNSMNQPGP
T2 sequence (Q9UM73 with tags, fused parts or gaps): as the sequence (Q9UM73 with tags, fused parts or gaps) above

Compound	suppressing both ALK expression and ALK activity (ALK)	effect on NPM-ALK fusion protein levels, time dependence (NPM-ALK fusion protein)	Dmax at 0.03 µM (NPM-ALK fusion protein) [%]	reversibility of induced ALK fusion protein degradation after washout (NPM-ALK fusion protein)	effect on NPM-ALK fusion protein levels, concentration dependence (NPM-ALK fusion protein)	rescue of induced NPM-ALK degradation by pomalidomide, MLN4924 and MG-132 (NPM-ALK fusion protein)	inhibition of ALK activity (phosphorylation at Tyr1507) (Phospho-ALK (Tyr1507))	cell viability inhibition compared with negative controls (SU-DHL-1 cells)	GI50 (SU-DHL-1 cells) [nM]	effect on EML4-ALK fusion protein levels, time dependence [1]	effect on EML4-ALK fusion protein levels, concentration dependence [1]	bioavailability in mice [2]
Cc1cc(Nc2ncc(Cl)c(Nc3ccccc3S(=O)(=O)C(C)C)n2)c(OC(C)C)cc1C1CCN(CC(=O)NCCOCCOCCOCCOCCOCCNc2cccc3c2C(=O)N(C2CCC(=O)NC2=O)C3=O)CC1 (centres unmarked) [CZ40-77, 2-(4-(4-((5-Chloro-4-((2-(isopropylsulfonyl)phenyl)amino)pyrimidin-2-yl)amino)-5-isopropoxy-2-methylphenyl)piperidin-1-yl)-N-(17-((2-(2,6-dioxopiperidin-3-yl)-1,3-dioxoisoindolin-4-yl)amino)-3,6,9,12,15-pentaoxaheptadecyl)acetamide]	especially effective	time-dependently reduced	> 80	Reversible	concentration-dependently reduced	significantly rescued	strongly inhibited	better cell viability inhibition	< 40	time-dependently reduced	concentration-dependently reduced	–
Cc1cc(Nc2ncc(Cl)c(Nc3ccccc3S(=O)(=O)C(C)C)n2)c(OC(C)C)cc1C1CCN(CC(=O)NCCNc2cccc3c2C(=O)N(C2CCC(=O)NC2=O)C3=O)CC1 (centres unmarked) [CZ40-78, 2-(4-(4-((5-Chloro-4-((2-(isopropylsulfonyl)phenyl)amino)pyrimidin-2-yl)amino)-5-isopropoxy-2-methylphenyl)piperidin-1-yl)-N-(2-((2-(2,6-dioxopiperidin-3-yl)-1,3-dioxoisoindolin-4-yl)amino)ethyl)acetamide]	especially effective	time-dependently reduced	> 80	Reversible	concentration-dependently reduced	significantly rescued	strongly inhibited	better cell viability inhibition	< 40	time-dependently reduced	concentration-dependently reduced	Bioavailable
